From patent US7618988B2, “Use of substituted aminomethyl chromans” (Merck Patentgesellschaft, priority 2001, dated 2009)

Key:
5-HT1A receptor = 5-HT1A receptor (UniProt P19327); experiment: 5-HT1A receptor radioligand binding; details: in vitro radioligand binding; read-out: IC50, binding to 5HT1A receptors
Excerpt: (§1) The affinity to the 5-HT1A receptor can be determined in vitro by radioligand binding experiments according to Cossery J M et al. (Eur. J. Pharmacol. 1987; 140: 143-155). The functional agonistic properties at the 5HT1A receptor can be determined in vitro in the GTP-gamma-S test (Newman-Tancredi A et al., Eur. J. Pharmacol.1996; 307: 107-111). A standard in vivo animal model to test for the 5HT1A agonistic properties is the ultrasonic vocalization test in rats (e.g. deFry J et al., Eur. J. Pharmacol. 1993; 249: 331-339; Sanchez C, Behav. Pharmacol. 1993; 4: 269-277). The affinity for dopamine D4 receptors can be determined in vitro by radioligand binding experiments according to Klokow M et al. (Drug Res. 1986; 36: 197-200).

dopamine D4 receptors = dopamine D4 receptors (Homo sapiens, UniProt P21917); experiment: dopamine D4 receptor radioligand binding; details: in vitro radioligand binding
Chain of dopamine D4 receptors (P21917 whole entry): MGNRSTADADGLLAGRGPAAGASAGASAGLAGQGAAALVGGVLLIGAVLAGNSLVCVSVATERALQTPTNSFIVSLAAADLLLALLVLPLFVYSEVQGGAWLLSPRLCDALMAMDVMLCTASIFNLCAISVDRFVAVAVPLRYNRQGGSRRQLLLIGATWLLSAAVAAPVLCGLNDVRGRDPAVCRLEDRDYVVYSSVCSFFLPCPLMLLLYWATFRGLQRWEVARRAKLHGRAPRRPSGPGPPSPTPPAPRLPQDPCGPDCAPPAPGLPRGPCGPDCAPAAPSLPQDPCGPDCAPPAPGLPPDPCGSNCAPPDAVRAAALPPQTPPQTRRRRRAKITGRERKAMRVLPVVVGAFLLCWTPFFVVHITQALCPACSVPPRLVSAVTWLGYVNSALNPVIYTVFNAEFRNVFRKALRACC
Excerpt: as §1

D2 receptors = D2 receptors (Homo sapiens, UniProt P14416); experiment: binding / inhibitory effect at dopamine D2 receptor
Chain of D2 receptors (P14416 whole entry): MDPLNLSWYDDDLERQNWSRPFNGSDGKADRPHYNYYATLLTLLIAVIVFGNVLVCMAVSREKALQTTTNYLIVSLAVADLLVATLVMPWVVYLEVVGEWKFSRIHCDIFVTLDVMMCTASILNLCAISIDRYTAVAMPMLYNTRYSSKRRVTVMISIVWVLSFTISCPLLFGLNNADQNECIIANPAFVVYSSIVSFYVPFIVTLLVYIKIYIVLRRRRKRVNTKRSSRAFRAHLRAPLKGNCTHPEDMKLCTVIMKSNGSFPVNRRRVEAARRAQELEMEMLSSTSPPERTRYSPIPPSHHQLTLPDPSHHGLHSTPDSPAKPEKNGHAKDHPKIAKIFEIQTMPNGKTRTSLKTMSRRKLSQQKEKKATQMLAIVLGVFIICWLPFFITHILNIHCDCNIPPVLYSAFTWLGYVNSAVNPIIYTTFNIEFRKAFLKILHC

cataleptic rat = experiment: reversal of catalepsy in rats; type: in vivo; details: Rattus norvegicus, sc, subcutaneous, read-out: ED50 (calculated dose to reverse catalepsy by 50%)
Procedure: R represents hydrogen or a hydroxyl protecting group, and their optical isomers and pharmaceutically acceptable salts, in particular 2-({[5-(4-fluorophenyl)-pyridin-3ylmethyl]-amino}-methyl)-chroman-4-ol or an optical isomer or a physiologically acceptable salt or solvate thereof, excert an extraordinary potency in reversing catalepsy. Extrapyramidal motor side effects in e.g. rodents are measured by the ability of a drug to induce catalepsy. Catalepsy is defined as a state where an animal continues to remain in an unnormal (nonphysiological ‘uncomfortable’) posture for a long time (e.g.: M. E. Stanley and S. D. Glick, Neuropharmacology, 1996; 15: 393-394; C. J. E. Niemegeers and P. Janssen, Life Sci., 1979, […]). For example, if a hindpaw of a rat is placed on an elevated level, e.g. a platform elevated 3 cm above ground level, a normal rat immediately withdraws the hindpaw from the platform to the ground level. A cataleptic rat remains in this unnatural posture even for minutes.

[1] = tested on: Parkinsonian cynomolgus monkey; experiment: MPTP Parkinsonian cynomolgus monkey, l-dopa-induced adverse effects; type: in vivo; details: MPTP monkeys chronically treated with l-dopa
Procedure: Treatment of adverse effects of conventional anti-Parkinsonian drugs as defined above are determined in a modification of the animal model of the Parkinsonian cynomolgus monkey according to P. J. Blanchet et al., Exp. Neurology 1998; 153: 214-222. Monkeys render parkinsonian by repeated injections of 1-methyl-4-phenyl-1,2,3,6-tetrahydropyridine (MPTP). The Parkinsonian monkeys are chronically treated with the standard 1-dopa therapy according to P. J. Blanchet et al., Mov. Disord., 1998; 13: 798-802. Longterm treatment with l-dopa induces extrapyramidal motor side effects and psychotic states which are both qualitatively and quantitatively, assessed by the Abnormal Involuntary Movement Scale (P. J. Blanchet et al., Mov. Disord. 1998; 13: 798-802) for different body parts (face, neck, trunk, each limb) and by rating for psychotic states by observing the monkey's attention, reactivity and mobility.

[2] = tested on: reserpinized rat or mouse; experiment: reserpinized rat or mouse (akinesia); type: in vivo; details: 24 h after reserpine
Procedure: A typical animal model is the reserpinized rat or mouse (e.g. M. S. Starr and B. S. Starr, J. Neural Transm.—Park. Dis. Dement. Sect., 1994; 7: 133-142; M. Gossel et al., J. Neural Transm.—Park. Dis. Dement. Sect., 1995; 10: 27-39; N. R. Hughes et al., Mov. Disord., 1998; 13: 228-233). Reserpine is a potent depleter of monoamines and produces nearly complete akinesia in both species. Prominent 24 h after application, the distance travelled and the time active is nearly zero as measured in conventional activity meters.

[3] = tested on: patients with Huntington's disease; experiment: trial in patients with Huntington's disease; type: in vivo, human; details: add on, 2.5 to 20 mg b.i.d.
Procedure: A typical trial to establish the effect of the compounds according to the invention on chorea, voluntary motor performance, and functional disability in patients with Huntington's disease encompasses 32 genetically diagnosed patients. (2R,4R)-2-({[5-(4-fluorophenyl)-pyridin-3ylmethyl]-amino}-methyl)-chroman-4-ol monohydrochloride hemihydrate or placebo is administered as “add on” to the conventional treatment, which is maintained unchanged during the whole study. The dose of blinded medication is titrated over a period of 3 weeks in a range from 2.5 to 20 mg b.i.d. Then the medication is held constant for 1 week. Assessments are performed in the week before and at the last day of the trial. Chorea is scored using the abnormal involuntary movement scale (AIMS, W. Guy, in: ECDEU assessment manual. Rockville Md.: US dept. of health, education and welfare, 1976: 534-537), the unified Huntington's disease rating scale (UHDRS, Huntington study group, 1996, Movement Disord, 11: 13642), and judgement of video recordings. Voluntary motor performance is assessed using the UHDRS motor scale. Patients and their partners complete a questionnaire regarding functional disability.

rats = experiment: neuroleptics-induced muscle rigidity in rats; type: in vivo, rat; details: enhanced by haloperidol
Excerpt: A typical animal model is neuroleptics-induced muscle rigidity in rats according to S. Wolfarth et al., Arch. Pharmacol. 1992; 345: 209-212. Rats are challenged with the conventional neuroleptic drug haloperidol which enhances muscle tone. Muscle tone is electromechanically measured as the resistence to passive flexion and extension of the hind limb.

[4] = tested on: neuroleptics sensitized monkey; experiment: neuroleptics sensitized monkey; type: in vivo; details: haloperidol challenge, scoring system
Excerpt: Another typical animal model is the neuroleptics sensitized monkey according to D. E. Casey, Psychopharmacology, 1996; 124: 134-140. Monkeys treated repeatedly with conventional neuroleptics are highly sensitive to a subsequent challenge dose of neuroleptic drugs. When challenged, the monkeys immediately show extrapyramidal motor side effects such as dystonia, dyskinesias, akathisia, and bradykinesia which are rated by a scoring system. The conventional neuroleptic drug haloperidol is given as a challenge.

Pietrain pig = experiment: Campus Syndrome in the Pietrain pig (tremor); details: in vivo
Excerpt: Typical genetic models in mutant animals are the Campus Syndrome in the Pietrain pig according to A. Richter et al. (Exp. Neurology, 1995; 134: 205-213) or the Weaver mutant mouse according to J. R. Simon and B. Ghetti (Mol. Neurobiol., 1994; 9: 183-189). In the Campus Syndrome model, these mutant pigs show a high-frequency tremor when standing and during locomotion, but not while lying at rest. Assessment of tremor is made by accelerometric recording. In the Weaver mutant mouse, degenerative cerebellar atrophy is […] in association with tremor, gait instability, and toppling over the sides after a few steps.

SMILES: O[C@@H]1C[C@H](CNCc2cncc(-c3ccc(F)cc3)c2)Oc2ccccc21 [(2R,4R)-2-({[5-(4-fluorophenyl)-pyridin-3ylmethyl]-amino}-methyl)-chroman-4-ol]
- IC50 (5-HT1A receptor): 10 nM
- IC50 (dopamine D4 receptors): 12 nM
- binding to D2 receptors (D2 receptors): no or only a very weak binding
- ED50 (cataleptic rat): ~2 mg/kg
- choreiform and dystonic dyskinesias (Abnormal Involuntary Movement Scale) [1]: reduce overall choreiform dyskinesias and dystonic dyskinesias
- psychotic states [1]: reduce
- akinesia (distance travelled and time active) [2]: dose-dependently reduce akinesia
- voluntary and involuntary motor performance [3]: significant improvement of voluntary and involuntary motor performance
- muscle tone (rats): decrease the muscle tone enhanced by haloperidol
- extrapyramidal motor side effects [4]: dose-dependently reduce the extrapyramidal motor side effects
- tremor when standing and during locomotion (Pietrain pig): reduce disabling tremor when standing and during locomotion
